Laboratory results from patent publication US5874446A, “Benzopyran derivatives” (Chugai Seiyaku Kabushiki Kaisha, priority 1992, dated 1999).

Experiments:
[1] = system: Excised Aorta of Rat (thoracic aorta ring preparations); assay: Test with Excised Aorta of Rat: relaxation of lasting contraction by KCl; format: cell-based, male Sprague Dawley rat; details: 50% inhibitory concentration, relaxation of 30 mM KCl contraction, Krebs-Henseleit, 37° C.
Procedure: Test with Excised Aorta of Rat
The thoracic aorta was excised from a male Sprague Dawley rat (450 to 600 g) and cut into 2 mm wide ring preparations. Each preparation was suspended in 10 ml of an Organ bath containing a Krebs-Henseleit solution (NaCl:119; KCl:4.8; CaCl2.2H2 O:2.53; KH2 PO4 :1.2; MgSO4.7H2 O:1.2; NaHCO3 :24.8; glucose:10(mM); 37° C.) under a tension of 2 g, and a mixed gas of 95% O2 and 5% CO2 was bubbled therethrough. Contraction reactions of the preparation were isometrically recorded by means of an FD pick-up. […] The activity of a test compound to relax a lasting contraction by the addition of KCl was evaluated by obtaining a 50% inhibitory concentration (IC50)
The compounds of the present invention obtained in the foregoing Examples and Cromakalim was used as test compound for comparison.

[2] = system: Guinea Pig Tracheal Muscle; assay: Test with Guinea Pig Tracheal Muscle: relaxing activity on spontaneous tension; format: cell-based, male Hartley guinea pig; details: Cavia porcellus; 50% relaxing activity; 1 mM aminophylline on spontaneous tension taken as 100%; Krebs-Henseleit, 37° C.
Procedure: Test with Guinea Pig Tracheal Muscle
The trachea was excised from a male Hartley guinea pig (450 to 550 g) to make chain preparations. The preparation was suspended in a bath containing the abovementioned Krebs-henseleit solution (37° C.) through which a mixed gas of 95% O2 and 5% CO2 was bubbled. Contraction reactions of the preparation were isometrically recorded under a tension of 1 g.
The same test compound as used in Text Example 1 were used.

SMILES: [O-][n+]1ccccc1C1=CC(CF)(CF)Oc2ccc(C(F)(F)C(F)(F)F)cc21 [Compound 48, 2-(6-Pentafluoroethyl-2,2-bisfluoromethyl-2H-1-benzopyran-4-yl)pyridine N-oxide]
- IC50 [1]: 1.6 nM
- IC50 [2]: 3.9 nM

SMILES: O=C1CCCCN1[C@@H]1c2cc(C(F)(F)C(F)(F)F)ccc2OC(CF)(CF)[C@H]1O (relative stereo) [Compound 4-2, Trans-6-pentafluoroethyl-2,2-bisfluoromethyl-3,4-dihydro-4-(2-oxo-1-piperidinyl)-2H-1-benzopyran-3-ol]
- IC50 [1]: 0.28 nM
- IC50 [2]: 6.9 nM

SMILES: CC1(C)Oc2ccc(C#N)cc2[C@@H](N2CCCC2=O)[C@@H]1O (relative stereo) [Cromakalim, reference compound]
- IC50 [1]: 170 nM
- IC50 [2]: 860 nM

SMILES: N#C[N-][n+]1ccccc1C1=CC(CF)(CF)Oc2ccc(C(F)(F)C(F)(F)F)cc21 [Compound 55, 2-(6-Pentafluoroethyl-2,2-bisfluoromethyl-2H-1-benzopyran-4-yl)pyridine N-cyanoimine]
- IC50 [1]: 0.82 nM
- IC50 [2]: 6.3 nM

SMILES: O=C1CCCCN1[C@@H]1c2cc([N+](=O)[O-])ccc2OC(CF)(CF)[C@H]1O (relative stereo) [Compound 6-2, Trans-2,2-bisfluoromethyl-3,4-dihydro-6-nitro-4-(2-oxo-1-piperidinyl)-2H-1-benzopyran-3-ol]
- IC50 [1]: 2.6 nM
- IC50 [2]: 6.8 nM

SMILES: [O-][n+]1ccccc1C1=CC(CF)(CF)Oc2ccc(C(F)(F)F)cc21 [Compound 50, 2-(2,2-Bisfluoromethyl-6-trifluoromethyl-2H-1-benzopyran-4-yl)pyridine N-oxide]
- IC50 [2]: 18 nM

SMILES: O=c1ccccn1C1=CC(CF)(CF)Oc2ccc([N+](=O)[O-])cc21 [Compound 12, 2,2-Bisfluoromethyl-6-nitro-4-(1,2-dihydro-2-oxo-1-pyridyl)-2H-1-benzopyran]
- IC50 [1]: 2.5 nM
- IC50 [2]: 5.9 nM

SMILES: N#C[N-][n+]1ccccc1C1=CC(CF)(CF)Oc2ccc([N+](=O)[O-])cc21 [Compound 52, 2-(2,2-Bisfluoromethyl-6-nitro-2H-1-benzopyran-4-yl)pyridine N-cyanoimine]
- IC50 [1]: 2 nM
- IC50 [2]: 12 nM

SMILES: N#Cc1ccc2c(c1)[C@@H](N1CCCC1=O)[C@H](O)C(CF)(CF)O2 (relative stereo) [Compound 2-2, Trans-6-cyano-2,2-bisfluoromethyl-3,4-dihydro-4-(2-oxo-1-pyrrolidinyl)-2H-1-benzopyran-3-ol]
- IC50 [1]: 74 nM
- IC50 [2]: 390 nM
